Experiment [1] in a line: Antioxidant activity assessed as DPPH radical scavenging activity at 100 uM after 30 mins (reference value: 1.9 +/- 1.2%). Format: functional.
In experiment [2] the target is Acetylcholinesterase (Electrophorus electricus) (UniProt O42275). Put plainly: Inhibition of Electrophorus electricus AChE at 100 uM using acetylthiocholine iodide as substrate preincubated for 30 mins followed by substrate addition and measured after 10 mins by Ellman's method.
Experiment [3] in a line: Inhibition of rat bone marrow myeloperoxidase using H2O2 as substrate after 20 mins by TMB based method.
Experiment [4] in a line: Antioxidant activity assessed as DPPH radical scavenging activity after 30 mins. Format: functional.
For the next experiment, the species on record is Rattus norvegicus. Put plainly: Inhibition of rat bone marrow myeloperoxidase using H2O2 as substrate at 10 uM after 20 mins by TMB based method (reference value: - 1.4 +/- 12.7%).
A short description of experiment [5]: Metal chelating activity assessed as compound-Mg2+ complex formation at 20 uM in presence of MgCl2 after 2 hrs by UV-visible spectrophotometric analysis.
Experiment [6] concerns the target Acetylcholinesterase (Electrophorus electricus) (UniProt O42275). Description: Non-competitive mixed inhibition of Electrophorus electricus AChE using acetylthiocholine iodide as substrate preincubated for 30 mins followed by substrate addition and measured after 10 mins by Lineweaver-Burk plot analysis.
The nature of experiment [7]: Metal chelating activity assessed as compound-Zn2+ complex stoichiometry ratio of 2:1 at 20 uM in presence of ZnCl2 after 2 hrs by Job's plot analysis.
Experiment [8] in a line: Metal chelating activity assessed as compound-Fe2+ complex formation at 20 uM in presence of FeCl2 after 2 hrs by UV-visible spectrophotometric analysis.
Experiment [9] is described as follows: Metal chelating activity assessed as compound-Ca2+ complex formation at 20 uM in presence of CaCl2 after 2 hrs by UV-visible spectrophotometric analysis.
Experiment [10] in a line: Metal chelating activity assessed as compound-Zn2+ complex formation at 20 uM in presence of ZnCl2 after 2 hrs by UV-visible spectrophotometric analysis.
Experiment [11] can be described thus: Metal chelating activity assessed as compound-Fe2+ complex stoichiometry ratio of 2:1 at 20 uM in presence of FeCl2 after 2 hrs by Job's plot analysis.
Experiment [12] can be described thus: Metal chelating activity assessed as compound-Cu2+ complex formation at 20 uM in presence of Cucl2 after 2 hrs by UV-visible spectrophotometric analysis.

Activity calls are given as the source filed them. No cut-off for these calls is given here.

Sequence of Acetylcholinesterase (Electrophorus electricus) (O42275 24-633 limits assumed): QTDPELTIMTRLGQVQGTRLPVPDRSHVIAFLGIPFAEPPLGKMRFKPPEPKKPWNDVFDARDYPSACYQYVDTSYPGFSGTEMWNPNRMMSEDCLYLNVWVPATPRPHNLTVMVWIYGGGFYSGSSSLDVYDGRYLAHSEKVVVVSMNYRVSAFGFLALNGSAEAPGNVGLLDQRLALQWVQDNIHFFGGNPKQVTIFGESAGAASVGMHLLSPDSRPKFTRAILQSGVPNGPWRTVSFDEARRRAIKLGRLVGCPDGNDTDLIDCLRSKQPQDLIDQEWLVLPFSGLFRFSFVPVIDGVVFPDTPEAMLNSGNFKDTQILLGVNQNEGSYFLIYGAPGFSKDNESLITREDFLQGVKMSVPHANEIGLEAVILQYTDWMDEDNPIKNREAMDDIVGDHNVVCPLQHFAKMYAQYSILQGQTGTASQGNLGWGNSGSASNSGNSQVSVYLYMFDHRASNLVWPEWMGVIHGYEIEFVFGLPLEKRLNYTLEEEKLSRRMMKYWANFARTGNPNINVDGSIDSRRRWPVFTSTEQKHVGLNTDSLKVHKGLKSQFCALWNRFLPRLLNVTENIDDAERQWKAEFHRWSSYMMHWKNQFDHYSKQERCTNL

In the case of `O=C(N/N=C/c1ccc(O)cc1)c1ccncc1`, in [1], the Activity was found to be 28.7%. Besides, the inhibition in [2] amounted to 10%.

As to `NNC(=O)c1ccncc1` [ISONIAZID], the Activity in [1] is 91.3%. Further, the figures for the IC50 in experiment [3] and in [4] were 3.9 µM and 22.9 µM, respectively. Moreover, the inhibition in [2] stood at 5.8%; in the experiment filed under Rattus norvegicus, 99%.

Take `O=C(N/N=C/c1c[nH]c2ccccc12)c1ccncc1`: in experiment [1], the Activity is 28.8%. The compound further gave an IC50 in experiment [3] of 1.5 µM. Further, the inhibition was found to be 5.5% in experiment [2] and 82.2% in the experiment filed under Rattus norvegicus.

On to `O=C(N/N=C/c1ccccn1)c1ccncc1`, for which, in [1], the Activity is -0.6%. In addition, the inhibition in [2] is 24.5%; in the experiment listed under Rattus norvegicus, 0.3%.

Consider `O=C(N/N=C/c1coc2ccccc2c1=O)c1ccncc1`, for which the result in experiment [5] and in [9] was inactive. Besides, in experiment [1], the Activity turned out to be 82.2%. The IC50 in experiment [3] is 5.3 µM; in experiment [4] it was 42.4 µM. The inhibition result in [6] was “Active”. Also, the outcome in [7], in [8], in [10], in [11] and in experiment [12] was Active. For the same compound, the values for the inhibition (in experiment [2]; in the experiment filed under Rattus norvegicus) were 54.2% and 80.1%, respectively.

On to `CCN(C)C(=O)Oc1cccc([C@H](C)N(C)C)c1`, for which, in experiment [1], the Activity was 0.2%. For the same compound, the inhibition came to 59.6% in experiment [2] and 17.1% in the experiment filed under Rattus norvegicus.

On to `COc1cc(/C=N/NC(=O)c2ccncc2)ccc1O` [FTIVAZIDE], for which, in experiment [1], the Activity came to 76.7%. Also, the IC50 in [4] was determined as 33.6 µM. For the same compound, the inhibition in experiment [2] turned out to be 23.1%; in the experiment filed under Rattus norvegicus it was 17.3%.

`O=C(N/N=C/c1ccc([N+](=O)[O-])cc1)c1ccncc1`: the Activity in [1] was determined as 2.5%. The values for the inhibition (in experiment [2]; in the experiment filed under Rattus norvegicus) were 12.7% and 32%, respectively.

As to `O=c1c(O)c(-c2ccc(O)c(O)c2)oc2cc(O)cc(O)c12` [QUERCETIN], the Activity in [1] amounted to 96.3%. For the same compound, in experiment [4], the IC50 worked out at 15.3 µM. For the same compound, in the experiment filed under Rattus norvegicus, the inhibition is 96.3%.

With `O=C(N/N=C/c1ccccc1)c1ccncc1`, the Activity in experiment [1] stood at 3.3%. Moreover, the inhibition in [2] is 16.5%; in the experiment listed under Rattus norvegicus, 5.1%.

With `O=C(N/N=C/c1cc(O)ccc1O)c1ccncc1`, the Activity in experiment [1] turned out to be 92.4%. For the same compound, the IC50 in [3] was determined as 4.8 µM; in experiment [4] it was 18.3 µM. The inhibition is 0.3% in experiment [2] and 100% in the experiment filed under Rattus norvegicus.

As for `CN(C)c1ccc(/C=N/NC(=O)c2ccncc2)cc1` [N'-(4-DIMETHYLAMINOBENZYLIDENE)ISONICOTINOHYDRAZIDE], the Activity in experiment [1] is 6.3%. In experiment [3], this compound registered an IC50 of 1.4 µM. Further, the inhibition was 6.9% in experiment [2] and 96.1% in the experiment listed under Rattus norvegicus.

For the compound `O=C(N/N=C/c1ccc(F)cc1)c1ccncc1`, the Activity in experiment [1] was determined as 8.1%. Besides, the inhibition in [2] was 16.3%; in the experiment filed under Rattus norvegicus it was 4.6%.

As for `O=C(N/N=C/c1ccccc1O)c1ccncc1`, the Activity in [1] amounted to 5.3%. The figures for the inhibition (in [2]; in the experiment filed under Rattus norvegicus) were 3% and 45.3%, respectively.

`O=C(N/N=C/c1cccc([N+](=O)[O-])c1)c1ccncc1`: the Activity in experiment [1] stood at 2%. The inhibition was 36.2% in experiment [2] and -10% in the experiment filed under Rattus norvegicus.

For the compound `O=C(N/N=C/c1cc(Br)ccc1O)c1ccncc1`, the Activity in experiment [1] worked out at 3.9%. In experiment [3], this compound yielded an IC50 of 4.3 µM. Also, the values for the inhibition (in experiment [2]; in the experiment listed under Rattus norvegicus) were 6.8% and 90%, respectively.

Consider `O=C(N/N=C/c1ccc(Cl)c(Cl)c1)c1ccncc1`, for which the Activity in [1] stood at 3.9%. The inhibition in [2] is 14%; in the experiment filed under Rattus norvegicus, -2.4%.

Consider `COc1ccc(/C=N/NC(=O)c2ccncc2)cc1`, for which the Activity in experiment [1] stood at 2.4%. Moreover, the values for the inhibition (in [2]; in the experiment filed under Rattus norvegicus) were 8% and 6%, respectively.

Values taken from ChEMBL document CHEMBL4627368, “Acylhydrazones as isoniazid derivatives with multi-target profiles for the treatment of Alzheimer's disease: Radical scavenging, myeloperoxidase/acetylcholinesterase inhibition and biometal chelation” (Bioorg Med Chem, 2020).
